Measured values from publication PMC8589421, “Impact of Type II LRRK2 inhibitors on signaling and mitophagy” (Biochemical Journal, 2021).

System: Rab10 phosphorylation
Assay: Rab10 phosphorylation in primary human neutrophils
Assay type: cell-based
Details: primary human neutrophils from two donors, 45 min
Method: Cell extracts were mixed with a quarter of a volume of NuPage LDS Sample buffer 4× Invitrogen and heated at 95°C for 5 min. […] At the end of electrophoresis, proteins were electrophoretically transferred onto the nitrocellulose membrane (GE Healthcare, Amersham Protran Supported 0.45 µm NC) at 100 V for 90 min on ice in the transfer buffer (48 mM Tris–HCl and 39 mM glycine supplemented with 20% methanol). Transferred membrane was blocked with 5% (w/v) skim milk powder dissolved in TBS-T [20 mM Tris–HCl, pH 7.5, 150 mM NaCl and 0.1% (v/v) Tween 20] at room temperature for 1 h. The membrane was typically cropped into three pieces, namely the ‘top piece’ (from the top of the membrane to 75 kDa), the ‘middle piece’ (between 75 and 30 kDa) and the ‘bottom piece’ (from 30 kDa to the bottom of the membrane). All primary antibodies were used at 1 μg/ml final concentration and incubated in TBS-T containing 5% (by mass) bovine serum albumin with exception of α-tubulin and GAPDH antibodies that were diluted 1 : 5000 and 1 : 2000, respectively. The top piece was incubated with the indicated rabbit anti-LRRK2 phosphorylation site antibody multiplexed with mouse anti-LRRK2 C-terminus total antibody. […] Protein bands were acquired via near infrared fluorescent detection using the Odyssey CLx imaging system and quantified using the Image Studio software. […]

Cc1ccc(C(=O)Nc2ccc(CN3CCN(C)CC3)c(C(F)(F)F)c2)cc1C#Cc1cnc2[nH]ncc2c1 [GZD-824]
concentration giving maximal inhibition of Rab10 phosphorylation: 300 nM
